Measured values from article PMC6930638, “The Masked Polar Group Incorporation (MPGI) Strategy in Drug Design: Effects of Nitrogen Substitutions on Combretastatin and Isocombretastatin Tubulin Inhibitors” (Molecules, 2019).
In brackets after ≈: the same amount, converted by molar mass. Like-named read-outs stand apart in the source and are kept apart here.

Legend:
[1] = test system: HeLa, HT-29 and MCF-7 human tumor cell lines; assay: Antiproliferative activity over the three human tumor cell lines (MTT); assay type: cell-based; details: Homo sapiens, read-out: Cytotoxicity range (range of antiproliferative IC50 values)
Protocol: (§1) The in vitro antiproliferative activity of the synthesized compounds was evaluated by a colorimetric reaction, using the MTT reagent. They were tested against three different human tumor cell lines: HeLa cervix epithelioid carcinoma, HT-29 colon adenocarcinoma, and MCF-7 breast adenocarcinoma. […] Moving the alkylamino substituent from a para to a meta position with respect to the bridge results in potency reduction, except for the phenstatin analogue 1f. However, the introduction of a nitrogen atom to form 2-dimethylaminopyridine derivatives entails a loss of activity, both for phenstatin analogues (1b, 2b), while for isocombretastatins, it only involves a 2–3 times potency decrease (3b). For combretastatins, it implies an improvement in the cytotoxicity values down to tenths of nanomolar (8b). […] On the other hand, the best 2-dimethylaminopyridine was combretastatin 8b. All ammonium salts derivatives were not cytotoxic at micromolar concentrations.
The antiproliferative activity of the compounds against three human tumor cell lines of different origins (i.e., HeLa cervix epithelioid carcinoma, HT-29 colon adenocarcinoma and MCF-7 breast adenocarcinoma) was evaluated by the MTT method. […] This high success rate is the result of a combination of favorable scaffolds and substituents, and it is similar to those of previous reports on related series. […] We have previously observed the same trend for related compounds acting at the colchicine site of tubulin [10, 23]. For this pyridine series, we observed a different potency trend when we compare the 4-amino-3-pyridine and the 3-amino-4-pyridine derivatives. […] This different behavior is probably a reflection of their different shape, combined with the different geometries imposed by different bridges. We have previously shown that the potency ordering isocombretastatins similar to oximes higher than benzophenones could be explained by the higher conjugation of the ketones with the aromatic rings, which imposes a more planar disposition than those required for high affinity colchicine site binding. For the 3-amino-4-pyridine series, more planar structures are required in order to avoid the bumping of the amino substituents with tubulin out the plane of the aromatic ring, an effect which we have previously shown to impact the potency of 3-substituted indolecombretastatins and dimethylaminophenyl phenstatins. This different geometrical disposition of the amino substituents, and the different adaptability of their corresponding pockets in the two series, can also account for the preference of bulkier substituents at position 3, such as the pyrrolidine rather than the smaller dimethylamino. […] The opposite is observed for the 4-dimethylaminophenyl phenstatins 1a and 1b. […] The remarkable levels of solubility achieved for the quaternary ammonium salts came unfortunately at the expenses of biological activity.
The effect of the different compounds on the proliferation of human cell lines was determined by using the MTT (3-[4,5-dimethylthiazol-2-yl]-2,5-diphenyltetrazolium bromide) reagent (MTT Thiazolyl Blue Tetrazolium Bromide, Sigma-Aldrich, St. Louis, MO, USA) dissolved in PBS 5 mg/mL. Cell viability was evaluated seeding 100 µL of cells in exponential growth phase with appropriate cell line concentration (1.5 × 10^4 HeLa and MCF-7 cells/mL and 3 × 10^4 HT-29 cells/mL) in complete medium in 96-well plates at 37 °C and 5% CO2. After 24 h incubation to allow cells to attach to the plates the ligands were added at different concentrations from 10^−5 to 10^−9 M. The effect on the proliferation was evaluated 72 h post-treatment by adding the MTT reagent (10 µL/well) to a final concentration of 0.5 mg/mL and the plate was further incubated for another 3 h. […]

[2] = test system: MCF-7 breast adenocarcinoma; assay: MTT cell antiproliferative assay, MCF-7; assay type: cell-based; details: Homo sapiens, MCF7, 72 h
Protocol: as §1
(§2) HeLa (human cervical carcinoma) and MCF-7 (human breast carcinoma) cell lines were cultured in Dulbecco’s Modified Eagles Medium (DMEM) supplemented with 2 mM L-glutamine (Lonza-Cambrex, Karlskoga, Sweden), 10% (v/v) heat inactivated fetal bovine serum (HIFBS) (Lonza-Cambrex) and 100 μg/mL streptomycin-100 IU/mL penicillin (Lonza-Cambrex) at 37 °C in humidified 95% air and 5% CO2. HT-29 (human colon carcinoma) cells were cultured at 37 °C in complete RPMI 1640 medium containing 2 mM L-glutamine, 10% (v/v) HIFBS and 100 μg/mL streptomycin-100 IU/mL penicillin in humidified 95% air and 5% CO2 atmosphere.
(§3) The effect of the different compounds on the proliferation of human cell lines was determined by using the MTT (3-[4,5-dimethylthiazol-2-yl]-2,5-diphenyltetrazolium bromide) reagent (MTT Thiazolyl Blue Tetrazolium Bromide, Sigma-Aldrich, St. Louis, MO, USA) dissolved in PBS 5 mg/mL. Cell viability was evaluated seeding 100 µL of cells in exponential growth phase with appropriate cell line concentration (1.5 × 10^4 HeLa and MCF-7 cells/mL and 3 × 10^4 HT-29 cells/mL) in complete medium in 96-well plates at 37 °C and 5% CO2. After 24 h incubation to allow cells to attach to the plates the ligands were added at different concentrations from 10^−5 to 10^−9 M. The effect on the proliferation was evaluated 72 h post-treatment by adding the MTT reagent (10 µL/well) to a final concentration of 0.5 mg/mL and the plate was further incubated for another 3 h. After this period, the supernatant was removed, the MTT violet crystals formed on the bottom of each well were dissolved in DMSO (100 µL/well) and subsequently, the absorbance of the color complex was read at 570 nm using a multi-well plate reader. Compounds were dissolved in dimethyl sulfoxide (DMSO) and the final solvent concentrations never exceeded 0.5% (v/v). The control wells included treated cells with 0.5% (v/v) DMSO and the positive control. Measurements were performed in triplicate, and each experiment was repeated three times. […] Nonlinear curves fitting the experimental data were carried out for each compound.

[3] = test system: Bovine brain microtubule protein (MTP); assay: Tubulin polymerization inhibition assay (turbidimetry); assay type: biochemical; details: 1.5 mg/mL MTP; IC50 calculated only if more than 50% inhibition at 20 µM; read-out: TPI IC50
Protocol: Bovine brain microtubule protein (MTP) was isolated as previously described. Briefly, it was purified according to the modified Shelanski method by two cycles of temperature-dependent assembly/disassembly.
Tubulin polymerization was monitored using a Helios α spectrophotometer by measuring the increase in turbidity at 450 nm, caused by a shift from 4 °C to 37 °C, which allows the in vitro MTP self-disassembly and assembly respectively. […] Firstly, ligands at 20 µM concentration, were incubated with 1.5 mg/mL MTP at 20 °C for 30 min and subsequently cooled on ice for 10 min. Then, the experiment starts at 4 °C to establish the initial baseline. The assembly process was initiated by shifting of the temperature to 37 °C and the turbidity produced can be measured by an absorbance increase. After reaching a stable plateau, the temperature was switched back to 4 °C to return to the initial absorption values. The difference in amplitude between the stable plateau and the initial baseline of the curves was taken as the degree of tubulin polymerization for each experiment. […] All the measurements were carried out in at least two independent experiments using MTP from different isolation.

[4] = test system: HeLa cervix epithelioid carcinoma; assay: MTT cell antiproliferative assay, HeLa; assay type: cell-based; details: Homo sapiens, 72 h
Protocol: as §1, §2, §3

[5] = Aqueous solubility determination (shake flask, UV); assay type: physicochemical; details: thermodynamic from solid, phosphate buffer pH 7.0, 48 h stirring, filtered, UV, read-out: Solub.
Protocol: One of the expected effects of introducing nitrogen substitutions on combretastatin and isocombretastatin analogues, is an increase in aqueous solubility. Solubility was spectrophotometrically determined in phosphate buffer at pH 7. UV absorbance of soluble compounds was measured after shaking and microfiltration. […] In addition, aqueous solubilities of the corresponding ammonium salts are over 1 mg/mL.
This great improvement is probably due to the symmetry reduction, combined with an increased polarity for 2g.
Compounds were stirred in a solution of phosphate buffer at pH 7.0 (1–2 mg of compound in 300 µL of buffer) during 48 h. After that, the samples were filtered over a […] filter to discard the insoluble residues. In order to determine the maximum wavelength of absorbance for each compound, a scan between 270 and 400 nm was performed. Once the wavelength was selected, a calibration line was performed and the concentration of the stirred and filtered samples was measured.

[6] = test system: HT-29 colon adenocarcinoma; assay: MTT cell antiproliferative assay, HT-29 (without or with verapamil); assay type: cell-based, human; details: for IC50: Homo sapiens, HT-29, MTT, 72 h
Protocol: as §1
As observed in Table 1, there are no significant changes in the IC50 values for most compounds, except for combretastatins 8a and 8i.
Acquired resistance to antitumor drugs is one of the more important problems of chemotherapy, also affecting tubulin-targeting drugs. In order to ascertain the impact of multidrug resistance phenotypes on the action of the compounds, we have measured the cell proliferation inhibitory activity of HT-29 cells in the presence of verapamil, a known P-glycoprotein 1/multidrug resistance protein 1 (MDR1) inhibitor at a concentration of 10 µM, not affecting cell proliferation. […] Except for the combretastatin analogues 8a and 8i, the affected drugs are all pyridine drugs.
as §2, §3

[7] = range over the cell lines, Table S1
[8] = phosphate buffer, pH 7, aqueous buffer

Structure (SMILES) | IC50 [1, 7] [nM] | IC50 [2] [nM] | IC50 [3] [nM] | IC50 [4] [nM] | solubility at 48 h [5, 8] [µg/mL] | IC50 [6] [nM] | solubility at 48 h ([5]; aqueous buffer) [µg/mL] | IC50 [1] [nM] | IC50 ([1]; range over the cell lines, Table S1, heading: Cytotoxicity range) [nM] | improvement of HT-29 IC50 after verapamil treatment ([6]; 10 µM verapamil) [fold]
COc1cc(C(=O)c2ccc(N(C)C)nc2)cc(OC)c1OC [Compound 1b, (6-(Dimethylamino)pyridin-3-yl)(3,4,5-trimethoxyphenyl)methanone] | > 1000 | > 1000 | > 20000 | > 1000 | 10.5 (≈ 33.2 µM) |  |  |  |  | 
COc1ccc(C(=NO)c2ccc(N(C)C)cc2)c(OC)c1OC [Compound 2d, (4-(Dimethylamino)phenyl)(2,3,4-trimethoxyphenyl)methanone oxime] |  | 277 | > 20000 | 373 |  | 320 |  |  |  | 
COc1cc(C(=NO)c2cccc(N(C)C)c2)cc(OC)c1OC [Compound 2f, (3-(Dimethylamino)phenyl)(3,4,5-trimethoxyphenyl)methanone oxime] |  | > 1000 | > 20000 | > 1000 | 153 (≈ 463 µM) |  |  |  |  | 
C=C(c1ccc(N2CCCC2)nc1)c1cc(OC)c(OC)c(OC)c1 [Compound 3c, 2-(Pyrrolidin-1-yl)-5-(1-(3,4,5-trimethoxyphenyl)vinyl)pyridine] | 140 to 523 |  | > 20000 | 523 |  | 383 |  |  |  | 
C=C(c1cccc(N(C)C)c1)c1cc(OC)c(OC)c(OC)c1 [Compound 3f, N,N-Dimethyl-3-(1-(3,4,5-trimethoxyphenyl)vinyl)aniline] | > 1000 | > 1000 | > 20000 | > 1000 |  |  | 21 (≈ 67 µM) |  |  | 
COc1ccc(C(=O)c2ccc([N+](C)(C)C)cc2)c(OC)c1OC.[I-] [Compound 5d, N,N,N-Trimethyl-4-(2,3,4-trimethoxybenzoyl)benzenaminium iodide] | > 1000 | > 1000 | > 20000 | > 1000 | 4400 |  |  |  |  | 
COc1ccc(OC)c(C(=O)c2ccc([N+](C)(C)C)cc2)c1.[I-] [Compound 5e, 4-(2,5-Dimethoxybenzoyl)-N,N,N-trimethylbenzenaminium iodide] | > 1000 | > 1000 | > 20000 | > 1000 | > 5000 |  |  |  |  | 
COc1cc(C(=NO)c2ccc([N+](C)(C)C)cc2)cc(OC)c1OC.[I-] [Compound 6a, 4-((Hydroxyimino)(3,4,5-trimethoxyphenyl)methyl)-N,N,N-trimethylbenzenaminium iodide] |  | > 1000 | > 20000 | > 1000 |  |  | 1500 |  |  | 
C=C(c1ccc([N+](C)(C)C)cc1)c1cc(OC)c(OC)c(OC)c1.[I-] [Compound 7a, N,N,N-trimethyl-4-(1-(3,4,5-trimethoxyphenyl)vinyl)benzenaminium iodide] |  | > 1000 | > 20000 | > 1000 |  |  | 2500 | > 1000 |  | 
C=C(c1ccc([N+](C)(C)C)cc1)c1ccc(OC)c(OC)c1OC.[I-] [Compound 7d, N,N,N-Trimethyl-4-(1-(2,3,4-trimethoxyphenyl)vinyl)benzenaminium iodide] |  | > 1000 | > 20000 | > 1000 | 1000 |  |  |  | > 1000 | 
COc1cc(C=Cc2ccnc(N3CCCC3)c2)cc(OC)c1OC [Compound 8h, 2-(Pyrrolidin-1-yl)-4-(3,4,5-trimethoxystyryl)pyridine] | > 1000 | > 1000 | > 20000 | > 1000 | 65 (≈ 191 µM) |  |  |  |  | 
COc1cc(C=Cc2ccc(N3CCCC3)cc2)cc(OC)c1OC [Compound 8i, 1-(4-(3,4,5-Trimethoxystyryl)phenyl)pyrrolidine] |  | 140 |  | 243 |  | 430 |  |  |  | > 2
COc1cc(C=Cc2ccc([N+](C)(C)C)nc2)cc(OC)c1OC.[I-] [Compound 9b, N,N,N-trimethyl-5-(3,4,5-trimethoxystyryl)pyridin-2-aminium iodide] |  | > 1000 | > 20000 | > 1000 | 679 |  |  |  |  | 
